Consider 24 compounds from patent US9663460B2, “Sulfur derivatives as chemokine receptor modulators” (ALLERGAN, INC., priority 2010, dated 2017).

The assay deals with CCR2 (Homo sapiens (Human), UniProt P41597). Briefly: Calcium activity assayed on the FLIPR Tetra in HEK-Gqi5 cells stably expressing CCR2. The conditions noted are these: FLIPR Tetra calcium assay. It is filed as cell-based. The procedure: HEK-Gqi5 cells stably expressing CCR2 were cultured in (DMEM high glucose, 10% FBS, 1% PSA, 400 μg/ml geneticin and 50 μg/ml hygromycin. Appropriate positive control chemokines (MCP-1, MIP1A or RANTES) was used as the positive control agonist for screening compound-induced calcium activity assayed on the FLIPR^Tetra. The drug plates were prepared in 384-well microplates using the EP3 and the MuItiPROBE robotic liquid handling systems. Compounds were synthesized and tested for CCR^2 activity.
Sequence of CCR2 (P41597 whole entry, species assumed): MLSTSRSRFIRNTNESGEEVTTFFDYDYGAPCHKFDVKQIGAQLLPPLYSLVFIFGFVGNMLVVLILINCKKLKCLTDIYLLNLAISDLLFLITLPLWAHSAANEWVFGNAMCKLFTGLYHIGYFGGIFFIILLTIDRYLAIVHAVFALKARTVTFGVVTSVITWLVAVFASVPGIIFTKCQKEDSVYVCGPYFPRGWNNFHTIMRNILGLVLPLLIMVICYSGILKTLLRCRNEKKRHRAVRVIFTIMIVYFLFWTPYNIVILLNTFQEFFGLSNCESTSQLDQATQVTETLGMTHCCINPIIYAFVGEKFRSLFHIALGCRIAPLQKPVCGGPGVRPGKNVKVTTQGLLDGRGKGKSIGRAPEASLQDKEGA
As to `O=[N+]([O-])c1cccc([S+]([O-])c2ccc(Cl)cc2NS(=O)(=O)c2ccc(Cl)c(C(F)(F)F)c2)c1` (stereo not drawn), the “CCR2 % ANTAGONISM” value is on record as 85% and the IC50 worked out at 509 nM.

As to `CN(C)C(=O)C[S+]([O-])c1ccc(Cl)cc1NS(=O)(=O)c1ccc(Cl)c(C(F)(F)F)c1` (stereo not drawn) [2-{[4-chloro-2-({[4-chloro-3-(trifluoromethyl)phenyl]sulfonyl}amino)phenyl]sulfinyl}-N,N-dimethylacetamide], the “CCR2 % ANTAGONISM” value is listed as 100% and the IC50 is 268 nM.

Turning to `CNC(=O)C[S+]([O-])c1ccc(Cl)cc1NS(=O)(=O)c1ccc(Cl)c(C(F)(F)F)c1` (stereo not drawn) [2-{[4-chloro-2-({[4-chloro-3-(trifluoromethyl)phenyl]sulfonyl}amino)phenyl]sulfinyl}-N-methylacetamide], the “CCR2 % ANTAGONISM” value is reported as 91% and the IC50 was determined as 329 nM.

Turning to `CN(C)C(=O)CS(=O)(=O)c1ccc(Cl)cc1NS(=O)(=O)c1ccc(Cl)c(C(F)(F)F)c1` [2-{[4-chloro-2-({[4-chloro-3-(trifluoromethyl)phenyl]sulfonyl}amino)phenyl]sulfonyl}-N,N-dimethylacetamide], the “CCR2 % ANTAGONISM” value came out at 98% and the IC50 worked out at 462 nM.

As for `CNC(=O)CS(=O)(=O)c1ccc(Cl)cc1NS(=O)(=O)c1ccc(Cl)c(C(F)(F)F)c1` [2-{[4-chloro-2-({[4-chloro-3-(trifluoromethyl)phenyl]sulfonyl}amino)phenyl]sulfonyl}-N-methylacetamide], the “CCR2 % ANTAGONISM” value stood at 96% and the IC50 was 469 nM.

As for `CN(C)C(=O)CSc1ccc(Cl)cc1NS(=O)(=O)c1ccc(Cl)c(C(F)(F)F)c1` [2-{[4-chloro-2-({[4-chloro-3-(trifluoromethyl)phenyl]sulfonyl}amino)phenyl]thio}-N,N-dimethylacetamide], the “CCR2 % ANTAGONISM” value worked out at 92% and the IC50 was found to be 118 nM.

Turning to `C[S+]([O-])c1ccc(Cl)cc1NS(=O)(=O)c1ccc(Cl)c(Cl)c1` (stereo not drawn) [3,4-dichloro-N-[5-chloro-2-(methylsulfinyl)phenyl]benzenesulfonamide], the “CCR2 % ANTAGONISM” value is 87% and the IC50 worked out at 44 nM.

In the case of `CN(C)C(=O)CC[S+]([O-])c1ccc(Cl)cc1NS(=O)(=O)c1cc2ccccc2o1` (stereo not drawn) [3-({2-[(1-benzofuran-2-ylsulfonyl)amino]-4-chlorophenyl}sulfinyl)-N,N-dimethylpropanamide], the “CCR2 % ANTAGONISM” value worked out at 104% and the IC50 was determined as 160 nM.

Take `CN(C)C(=O)CCS(=O)(=O)c1ccc(Cl)cc1NS(=O)(=O)c1cc2ccccc2o1` [3-({2-[(1-benzofuran-2-ylsulfonyl)amino]-4-chlorophenyl}sulfonyl)-N,N-dimethylpropanamide]: the “CCR2 % ANTAGONISM” value is 99% and the IC50 stood at 76 nM.

In the case of `CN(C)C(=O)CCSc1ccc(Cl)cc1NS(=O)(=O)c1cc2ccccc2o1` [3-({2-[(1-benzofuran-2-ylsulfonyl)amino]-4-chlorophenyl}thio)-N,N-dimethylpropanamide], the “CCR2 % ANTAGONISM” value stood at 100% and the IC50 came to 146 nM.

On to `CN(C)C(=O)CC[S+]([O-])c1ccc(Cl)cc1NS(=O)(=O)c1ccc(F)cc1F` (stereo not drawn) [3-[(4-chloro-2-{[(2,4-difluorophenyl)sulfonyl]amino}phenyl)sulfinyl]-N,N-dimethylpropanamide], for which the “CCR2 % ANTAGONISM” value amounted to 93% and the IC50 came out at 1480 nM.

On to `CN(C)C(=O)CCS(=O)(=O)c1ccc(Cl)cc1NS(=O)(=O)c1ccc(F)cc1F` [3-[(4-chloro-2-{[(2,4-difluorophenyl)sulfonyl]amino}phenyl)sulfonyl]-N,N-dimethylpropanamide], for which the “CCR2 % ANTAGONISM” value turned out to be 89% and the IC50 was found to be 1580 nM.

As for `CN(C)C(=O)CCSc1ccc(Cl)cc1NS(=O)(=O)c1ccc(F)cc1F` [3-[(4-chloro-2-{[(2,4-difluorophenyl)sulfonyl]amino}phenyl)thio]-N,N-dimethylpropanamide], the “CCR2 % ANTAGONISM” value turned out to be 43% and the IC50 worked out at 2150 nM.

Turning to `CN(C)C(=O)CC[S+]([O-])c1ccc(Cl)cc1NS(=O)(=O)c1ccc(Cl)cc1F` (stereo not drawn) [3-[(4-chloro-2-{[(4-chloro-2-fluorophenyl)sulfonyl]amino}phenyl)sulfinyl]-N,N-dimethylpropanamide], the “CCR2 % ANTAGONISM” value was found to be 99% and the IC50 worked out at 221 nM.

With `CN(C)C(=O)CCS(=O)(=O)c1ccc(Cl)cc1NS(=O)(=O)c1ccc(Cl)cc1F` [3-[(4-chloro-2-{[(4-chloro-2-fluorophenyl)sulfonyl]amino}phenyl)sulfonyl]-N,N-dimethylpropanamide], the “CCR2 % ANTAGONISM” value is on record as 97% and the IC50 was 211 nM.

For `CN(C)C(=O)CCSc1ccc(Cl)cc1NS(=O)(=O)c1ccc(Cl)cc1F` [3-[(4-chloro-2-{[(4-chloro-2-fluorophenyl)sulfonyl]amino}phenyl)thio]-N,N-dimethylpropanamide], the “CCR2 % ANTAGONISM” value was 78% and the IC50 was 771 nM.

With `C[S+]([O-])c1ccc(Cl)cc1NS(=O)(=O)c1cccc(Cl)c1F` (stereo not drawn) [3-chloro-N-[5-chloro-2-(methylsulfinyl)phenyl]-2-fluorobenzenesulfonamide], the “CCR2 % ANTAGONISM” value was 101% and the IC50 stood at 61 nM.

In the case of `CS(=O)(=O)c1ccc(Cl)cc1NS(=O)(=O)c1cccc(Cl)c1F` [3-chloro-N-[5-chloro-2-(methylsulfonyl)phenyl]-2-fluorobenzenesulfonamide], the “CCR2 % ANTAGONISM” value is 101% and the IC50 is 116 nM.

For the compound `CSc1ccc(Cl)cc1NS(=O)(=O)c1cccc(Cl)c1F` [3-chloro-N-[5-chloro-2-(methylthio)phenyl]-2-fluorobenzenesulfonamide], the “CCR2 % ANTAGONISM” value worked out at 94% and the IC50 is 1920 nM.

Regarding `CN(C)C(=O)CC[S+]([O-])c1ccc(Cl)cc1NS(=O)(=O)c1ccc(Cl)c(C(F)(F)F)c1` (stereo not drawn) [3-{[4-chloro-2-({[4-chloro-3-(trifluoromethyl)phenyl]sulfonyl}amino)phenyl]sulfinyl}-N,N-dimethylpropanamide], the “CCR2 % ANTAGONISM” value is recorded as 89% and the IC50 amounted to 96 nM.

Take `CC(C)NC(=O)CC[S+]([O-])c1ccc(Cl)cc1NS(=O)(=O)c1ccc(Cl)c(C(F)(F)F)c1` (stereo not drawn) [3-{[4-chloro-2-({[4-chloro-3-(trifluoromethyl)phenyl]sulfonyl}amino)phenyl]sulfinyl}-N-isopropylpropanamide]: the “CCR2 % ANTAGONISM” value is 93% and the IC50 amounted to 1790 nM.

Take `NC(=O)CC[S+]([O-])c1ccc(Cl)cc1NS(=O)(=O)c1ccc(Cl)c(C(F)(F)F)c1` (stereo not drawn) [3-{[4-chloro-2-({[4-chloro-3-(trifluoromethyl)phenyl]sulfonyl}amino)phenyl]sulfinyl}propanamide]: the “CCR2 % ANTAGONISM” value is given as 99% and the IC50 was found to be 797 nM.

As for `CN(C)C(=O)CCS(=O)(=O)c1ccc(Cl)cc1NS(=O)(=O)c1ccc(Cl)c(C(F)(F)F)c1` [3-{[4-chloro-2-({[4-chloro-3-(trifluoromethyl)phenyl]sulfonyl}amino)phenyl]sulfonyl}-N,N-dimethylpropanamide], the “CCR2 % ANTAGONISM” value is listed as 93% and the IC50 amounted to 217 nM.

In the case of `CN(C)C(=O)CCSc1ccc(Cl)cc1NS(=O)(=O)c1ccc(Cl)c(C(F)(F)F)c1` [3-{[4-chloro-2-({[4-chloro-3-(trifluoromethyl)phenyl]sulfonyl}amino)phenyl]thio}-N,N-dimethylpropanamide], the “CCR2 % ANTAGONISM” value was 80% and the IC50 was 506 nM.

Usually IC50 stands for the concentration that inhibits the measured activity by half.
